# Literature values as cited in patent US20040082521A1, “Novel formulations of digitalis glycosides for treating cell-proliferative and other diseases” (Azaya Therapeutics Inc., priority 2002, published 2004).
# Key:
# [1] = tested on: human malignant cell lines; conditions: for growth and apoptosis: non-toxic concentrations
# [2] = tested on: various cancer cell lines
# [3] = tested on: androgen-independent human prostate cancer cell lines; conditions: for apoptosis: in vitro
# [4] = tested on: FGF-2 release from PC3 cells; conditions: 0.1 ng/mL
# [5] = tested on: FGF-2 release from DU145 cells; conditions: 0.1 ng/mL
compound,measurement,setting,value
C[C@H]1O[C@@H](O[C@H]2[C@@H](O)C[C@H](O[C@H]3[C@@H](O)C[C@H](O[C@H]4CC[C@@]5(C)[C@H](CC[C@@H]6[C@@H]5CC[C@]5(C)[C@@H](C7=CC(=O)OC7)CC[C@]65O)C4)O[C@@H]3C)O[C@@H]2C)C[C@H](O)[C@@H]1O [digitoxin],apoptosis-inducing effect,"[1]; in vitro, digitoxin vs digoxin",more potent for digitoxin than for digoxin
same,growth and apoptosis,[1],inhibits growth and induce apoptosis
C[C@H]1[C@H](C)CC[C@]2(C(=O)O)CC[C@]3(C)C(=CC[C@@H]4[C@@]5(C)CC[C@H](O)C(C)(C)[C@@H]5CC[C@]43C)[C@H]12 [ursolic acid],anti-cancer activities,[2],significant anti-cancer activities
"C[C@@H]1O[C@@H](O[C@H]2C[C@@H](O)[C@]3(CO)[C@H]4[C@H](O)C[C@]5(C)[C@@H](C6=CC(=O)OC6)CC[C@]5(O)[C@@H]4CC[C@]3(O)C2)[C@H](O)[C@H](O)[C@H]1O [Ouabain, reference compound]",apoptosis,[3],induce apoptosis
CO[C@@H]1C[C@H](O[C@H]2CC[C@@]3(C)[C@H](CC[C@@]45O[C@@]46CC[C@H](C4=CC(=O)OC4)[C@@]6(C)CC[C@H]35)C2)O[C@H](C)[C@@H]1O [adynerin],anti-cancer activities,[2],significant anti-cancer activities
"CO[C@H]1C[C@H](O[C@H]2CC[C@@]3(C)[C@H](CC[C@@H]4[C@@H]3CC[C@]3(C)[C@@H](C5=CC(=O)OC5)[C@@H](OC(C)=O)C[C@]43O)C2)O[C@@H](C)[C@@H]1O [Oleandrin, 16b-acetoxy-3b-[(2,6-dideoxy-3-0-methyl-a2-L-arabino-hexopyranosyl)oxy]14-hydroxy-5β, 14β-card-20(22)-enolide]",caspase activation,"[3]; cleavage of poly (ADP-ribose) polymerase, hydrolysis of DEVD-pNA",promoted caspase activation
same,apoptosis,[3],induce apoptosis
same,TNF-induced activation of c-Jun NH2terminal kinase,c-Jun NH2terminal kinase,inhibited
same,inhibition of FGF-2 release,[4],45.7%
same,elimination from the body,in vivo,one to two
same,distribution in the body,when ingested,widely distributed in the body
same,TNF-induced activation of NF-κB,NF-κB; TNF-induced,blocked
same,NF-κB activation induced by phorbol ester and lipopolysaccharide,NF-κB; phorbol ester and lipopolysaccharide,blocked
same,NF-κB-dependent reporter gene transcription activated by TNF,NF-κB; reporter gene,suppressed
same,inhibition of FGF-2 release,[5],49.9%
same,cell-killing potency,human cancer cells; comparison Oleandrin vs water extract,greater than that of the water extract
same,cell killing,human cancer cells; human cancer cells,able to induce cell killing
same,anti-cancer activities,[2],significant anti-cancer activities
same,AP-1 activation induced by TNF and other agents,AP-1,blocked
"C[C@H]1O[C@@H](O[C@H]2[C@@H](O)C[C@H](O[C@H]3[C@@H](O)C[C@H](O[C@H]4CC[C@@]5(C)[C@H](CC[C@@H]6[C@@H]5C[C@@H](O)[C@]5(C)[C@@H](C7=CC(=O)OC7)CC[C@]65O)C4)O[C@@H]3C)O[C@@H]2C)C[C@H](O)[C@@H]1O [digoxin, reference compound]",apoptosis,[3],induce apoptosis
same,growth and apoptosis,[1],inhibits growth and induce apoptosis
